# From patent US9694089B2, “Integrin targeting agents and in-vivo and in-vitro imaging methods using the same” (Visen Medical, Inc., priority 2008, dated 2017)
# What was measured:
# 4T-1 tumors = test: In vivo imaging of 4T-1 tumors; set-up: species or system NU/NU mice; conditions: 4 nmoles i.v., 24 hours post-injection
# Description: In this experiment, NU/NU mice 6-8 weeks old (Charles River Laboratory, Wilmington, Mass.) were injected subcutaneously (s.c.) with 2×10^6 4T-1 cells bilaterally in each mammary fat pad. When tumors reached an approximate size of 3×3 mm (around 7 days after cell injection), mice were injected intravenously (i.v.) with 4 nmoles of each integrin agent (5 mice/probe+2 mice/no probe as control) in 100 μL volume via tail vein. Imaging was conducted 24 hours post-injection using a Fluorescence Molecular Tomography system (VisEn Medical, Bedford, Mass.).
# [1] = test system: HUVEC (Human umbilical vein endothelial cells); test: Cell binding assay by fluorescence microscopy, HUVEC; type: cell-based
# Description: (§1) Cell binding assays were performed using HUVEC (Human umbilical vein endothelial cells) and human rhabdomyosarcoma A673 tumor cells. HUVEC or A673 (50,000 cells) (ATCC, Manassas, Va.) were seeded unto 8-well Lab-Tek chamberslides (Nalge-Nunc International, Naperville, Ill.) and left to adhere overnight at 37° C. in a humidified atmosphere containing 5% CO2. The following day, the medium was changed to fresh complete medium containing compound E-6 or free dye (20 nM), incubated for 30 minutes at 37° C., washed 2×with PBS and fixed with paraformaldehyde for 30 minutes at 4° C. Competition studies were performed by pre-incubating the cells for 5 minutes with parent compound (200 nM) before addition of E-6. The cells on the microscopy slides were then allowed to air dry protected from light. The slides were mounted with ProLong® Gold antifade reagent with DAPI (Molecular Probes, Eugene, Oreg.) and cured overnight at room temperature protected from light. Merged images of the nuclear staining (DAPI) and fluorescent signals were collected using fluorescence microscopy (Zeiss, Thornwood, N.Y.)
# ανβ3 [2] = molecular target: T1, ανβ3 (Homo sapiens, UniProt P05106+P06756); test: Inhibition of cell attachment to vitronectin, HEK293-ανβ3 cells; type: cell-based; conditions: for IC50: HEK293-ανβ3 cells, vitronectin-coated wells, 2 hours at 37° C., read-out: IC50 (nM), inhibition of cell attachment to vitronectin, αvβ3
# T1 construct: expressed in transfected cells; host or cells: HEK293
# Description: (§2) In this experiment, human embryonic kidney (HEK293) cells stably transfected with ανβ3 (HEK293-ανβ3 cells) were released with trypsin-EDTA and washed four times with serum-free MEM. […] Non-attached cells were gently washed away. Similar experiments were carried out with HEK293 cells stably transfected with ανβ5, α11bβ3, or α5β1. The attached cells were quantified by colorimetric detection of hexosaminidase enzymatic activity in a Vmax plate reader (Molecular Devices, Menlo Park, Calif.). The number of attached cells was quantified using a standard curve for each cell line assayed and expressed as a mean value of triplicate samples.
# ανβ5 = molecular target: T2, ανβ5 (Homo sapiens, UniProt P06756+P18084); test: Inhibition of cell attachment to vitronectin, HEK293 cells transfected with ανβ5; type: cell-based; conditions: for IC50: HEK293 cells stably transfected with ανβ5, read-out: IC50 (nM), inhibition of cell attachment to vitronectin, αvβ5
# T2 construct: expressed in transfected cells; host or cells: HEK293
# Description: as §2
# [3] = Biodistribution in A673 tumor-bearing mice; type: in vivo, NU/NU mice; conditions: 2 nmoles i.v., 24 hr
# Description: For the biodistribution studies, female NU/NU mice 6-8 weeks old (Charles River Laboratory, Wilmington, Mass.) were injected subcutaneously (s.c.) with A673 cells (5×10^6) in the first mammary fat pads. Once tumors reached the desired volume (measured with calipers using the formula volume mm^3=(length×width^2)/2), mice were injected i.v. with compound E-6 (2 nmoles). Mice were sacrificed by carbon dioxide asphyxiation 24 hr later and certain tissues removed, rinsed with saline, blotted dry, and the imaged on VisEn's FMT2500 using the reflectance mode. Regions of interest (ROIs) were drawn around each organ using the FMT Software and the mean fluorescence (reported as counts/energy) determined for each organ and normalized to the mean fluorescence in tumors taken to be 100%.
# A673 tumors [4] = test: Effect of Avastin treatment on integrin and cathepsin B signals in A673 tumor-bearing mice; type: in vivo
# Description: A673 tumor-bearing mice were randomized once their tumors reached the desired volume and injected i.v. with either E-6 (2 nmoles) or free dye (2 nmoles). For competition studies, mice were injected with the parent compound (100 nmoles) followed 5 minutes later by compound E-6 ([…]). For therapy studies, mice were treated with either 2 mg/kg Avastin (bevacizumab, Genentech, CA) or vehicle (PBS) intraperitoneally (i.p.) 2× week, and injected 7 days after beginning the treatment with 2 nmoles each of compound E-6 and ProSense (ProSense750, VisEn Medical, Bedford, Mass.) in a final volume of 200 μl PBS. ProSense is a protease-activatable fluorescence agent comprising fluorochromes linked to a peptide scaffold. Proteolytic cleavage of the scaffold by cathepsin B activity (and to a lesser extent cathepsins K, L, and S) releases the fluorochromes and results in extensive fluorescence (via dequenching). Imaging was performed 24 hours after administration of the agents using the FMT2500. Differential localization of fluorescent signal with compound E-6 and ProSense can be seen in the same animal. The wavelength of the laser was selected to 680 nm or 750 nm, corresponding to the absorption spectra of the fluorescent agents administered to the animal, enabling simultaneous imaging and quantification of 2 spectrally distinct agents.
# A673 tumors [5] = test: In vivo FMT imaging and quantification of signal in A673 tumor-bearing mice; set-up: species or system NU/NU mice
# Description: Female NU/NU mice 6-8 weeks old (Charles River Laboratory, Wilmington, Mass.) were injected subcutaneously (s.c.) with A673 cells (5×10^6) in the first mammary fat pads. Once tumors reached the desired volume (measured with calipers using the formula volume mm^3=(length×width^2)/2), mice were injected i.v. with E-6 ([…]) in the absence or presence of excess, competing parent compound (100 nmoles). Control mice received free dye. For in vivo imaging, mice were anesthetized by gas anesthesia (isoflurane/oxygen mixture), placed in the VisEn's FMT2500 system imaging chamber one at a time, and imaged.
# The fluorescent signal was quantified by drawing a three-dimensional ROI encompassing each tumor.
# αIIbβ3 = molecular target: T3, αIIbβ3 (Homo sapiens, UniProt P05106+P08514); test: Inhibition of cell attachment to vitronectin, HEK293 cells transfected with αIIbβ3; type: cell-based; conditions: for IC50: HEK293 cells stably transfected with αIIbβ3
# T3 construct: expressed in transfected cells; host or cells: HEK293
# Description: as §2
# [6] = Plasma pharmacokinetics in mice; type: in vivo, BALB/c mice; conditions: 2 nmoles i.v. bolus, two compartmental model
# Description: Twenty-four female retired breeder BALB/c mice (Charles River Laboratories, Wilmington, Mass.) received a bolus intravenous (i.v.) injection of compound E-6 (2 nmoles in PBS). Terminal blood samples were collected by cardiac puncture from each mouse (following carbon dioxide asphyxiation). Three mice were sampled for each time point. Plasma was collected by centrifugation, diluted 1:2 in DMSO and fluorescence read using a fluorescence plate reader (Molecular Devices, Sunnyvale, Calif.). Data was normalized to a standard curve (FIG. 5A) prepared with known concentrations of E-6.
# ανβ3 [7] = molecular target: T1, ανβ3; test: Equilibrium binding and dissociation measurements by flow cytometry on HEK293-ανβ3 cells
# Description: The amount of probe bound to integrins on HEK293-ανβ3 cells was determined by flow cytometry (FACSCalibur, BD Biosciences, CA). Data was analyzed using FlowJo software and Kd values were calculated using SigmaPLot 10 software. For koff determination, HEK293-ανβ3 cells (1×10^6) were incubated with 100 nM of E-6 at 4° C. for 30 minutes and labeled cells were than transferred into PBS containing 10 mM of parent compound. The amount of probe bound to the integrins on HEK293-ανβ3 cells was determined by flow cytometry (FACSCalibur, BD Biosciences, CA) before mixing with unlabeled compound, and 1, 1.5, 2.5, 3.5, 4.5, 5.5, and 24 hours after mixing. Data was analyzed using FlowJo software and koff and t1/2 values calculated using SigmaPLot 10 software.
# α5β1 = molecular target: T4, α5β1 (Homo sapiens, UniProt P05556+P08648); test: Inhibition of cell attachment to vitronectin, HEK293 cells transfected with α5β1; type: cell-based; conditions: for IC50: HEK293 cells stably transfected with α5β1
# T4 construct: expressed in transfected cells; host or cells: HEK293
# Description: In this experiment, human embryonic kidney (HEK293) cells stably transfected with ανβ3 (HEK293-ανβ3 cells) were released with trypsin-EDTA and washed four times with serum-free MEM. Cells (25,000 cells/well) were added to microtiter wells coated with vitronectin and allowed to attach for 2 hours at 37° C. in a humidified incubator in the absence or presence of increasing concentrations of compound E-6 or unlabelled parent compound (as an inhibitor of E-6). Non-attached cells were gently washed away. Similar experiments were carried out with HEK293 cells stably transfected with ανβ5, α11bβ3, or α5β1. The attached cells were quantified by colorimetric detection of hexosaminidase enzymatic activity in a Vmax plate reader (Molecular Devices, Menlo Park, Calif.). The number of attached cells was quantified using a standard curve for each cell line assayed and expressed as a mean value of triplicate samples.
# ανβ3 [8] = molecular target: T1, ανβ3; test: Confocal microscopy cell binding assay on HEK293-ανβ3 cells; type: cell-based
# Description: Cell binding assays using HEK293 cells stably expressing human ανβ3 were performed.
# HEK293 cells stably transfected with ανβ3 (HEK293-ανβ3 cells) were plated onto poly-L-lysine coated Lab-Tek II chambered coverglass (Nuns, Rochester, N.Y.) the day before the assay. Cells were first incubated with DAPI (10 μg/ml) for 3 hours, followed by CellMask (Invitrogen, Carlsbad, Calif.) staining for 5 minutes. Cells were then washed 2× with PBS and incubated with E-6 (200 nM in PBS containing 5% serum) at 4° C. or 37° C. for 30 minutes. For the competition study, cells were incubated with parent compound (200 μM) for 1 hour before E-6 incubation. Confocal microscopy was performed on a Leica SP5 confocal system (Leica, Wetzlar, Germany).
# [9] = test system: human rhabdomyosarcoma A673 tumor cells; test: Cell binding assay by fluorescence microscopy, A673 tumor cells; type: cell-based
# Description: as §1
# [10] = agent 20 nM, 30 minutes at 37° C.
# [11] = pre-incubation 5 minutes with parent compound 200 nM
molecule,measurement,setting,value
CCN1/C(=C/C=C(/C=C/C2N(CC)c3ccc4c(S(=O)(=O)O)cc(S(=O)(=O)O)cc4c3C2(C)C)c2ccc(C(=O)NCCCCCC(=O)NCc3cc4c(nc3CCCCCC[C@@H](CC(=O)O)c3cnc(C)nc3)NCCC4)cn2)C(C)(C)c2c1ccc1c(S(=O)(=O)O)cc(S(=O)(=O)O)cc21 (some centres unmarked) [Compound E-7],imaging of tumors in vivo,4T-1 tumors,imaged effectively
Cc1ncc([C@@H](CCCCCCc2nc3c(cc2CNC(=O)CCCN(C)S(=O)(=O)c2cccc4c5c(ccc24)N(CCCS(=O)(=O)O)/C(=C/C=C/C=C/C2=[N+](CCS(=O)(=O)[O-])c4ccc6c(S(=O)(=O)O)cc(S(=O)(=O)O)cc6c4C2(C)C)C5(C)C)CCCN3)CC(=O)O)cn1 [Compound E-6],fluorescent signal of labeled HUVEC cells,[1]; [10],Significant fluorescent signal
same,IC50,ανβ3 [2],4.1 ± 0.3 nM
same,loss of affinity to ανβ3 compared to the parent compound,ανβ3 [2]; ratio of Table 4 IC50 values,5 fold
same,IC50,ανβ5,33 nM
same,loss of affinity to ανβ5 compared to the parent compound,ανβ5; ratio of Table 4 IC50 values,25 fold
same,tissue distribution of fluorescence,[3],"highest concentration found in tumors, followed by the liver, small intestine and skin"
same,signal produced in tumors following Avastin treatment,"A673 tumors [4]; A673 tumor-bearing mice, 2 nmoles agent, imaging 24 hours after",decreased by a greater amount than the signal produced by ProSense
same,fluorescence in tumors (FMT imaging),"A673 tumors [5]; A673 tumor-bearing mice, agent i.v., in words",readily detected
same,IC50,αIIbβ3,39 nM
same,potency in binding to α11bβ3 compared to the parent compound,αIIbβ3; in words,retains higher potency
same,plasma t(1)1/2 (free E-6 clearing from circulation),[6],6 min
same,plasma t(2)1/2 (clearance of bound E-6),[6],210 min
same,koff,"ανβ3 [7]; 100 nM E-6, 4° C., HEK293-ανβ3 cells, chase with parent compound, read-out: dissociation rate constant koff",0.000108 s⁻¹
same,Kd,"ανβ3 [7]; HEK293-ανβ3 cells, 4° C., 30 minutes, single binding site model, read-out: apparent equilibrium binding constant (Kd)",4.2 ± 0.6 nM
same,binding isotherms in the absence or presence of Mn^2+,ανβ3 [7]; in words,practically identical
same,IC50,α5β1,> 2000 nM
same,specific binding to α5β1,α5β1; in words,no specific binding
same,"internalization (receptor recycling, endocytosis)",ανβ3 [8]; 37° C. versus 4° C.,"internalization at 37° C., but not at 4 °C"
same,binding to HEK293-ανβ3 cells (confocal microscopy),"ανβ3 [8]; E-6 200 nM, 30 minutes, 4° C. or 37° C.",binds to the receptors on the surface of the cells
same,imaging of tumors in vivo,4T-1 tumors,imaged effectively
same,fluorescent signal of labeled A673 cells,[9]; [10],Significant fluorescent signal
"Avastin: Avastin (bevacizumab, Genentech, CA), anti-angiogenic treatment [reference compound]",effect of treatment on signal produced by compound E-6 in tumors,"A673 tumors [4]; Avastin 2 mg/kg i.p. 2× week, agents injected after 7 days",decreased
"Nc1ncnc2c1ncn2[C@@H]1O[C@H](OCP(=O)(O)O)C=C1F [Parent Compound, reference compound]",E-6 fluorescence intensity from HUVEC cells in the presence of a blocking dose,[1]; [11],reduced
same,IC50,ανβ3 [2],0.82 ± 0.2 nM
same,IC50,ανβ5,1.3 ± 0.2 nM
same,effect on total amount of E-6 signal in tumors (competition),"A673 tumors [5]; excess parent compound 100 nmoles, in words",effectively reduces
same,decrease of total E-6 fluorescence in tumors,"A673 tumors [5]; parent compound 100 nmoles versus E-6 alone, p=0.011",67%
same,IC50,αIIbβ3,> 10000 nM
same,IC50,α5β1,> 10000 nM
same,effect on binding of E-6 to HEK293-ανβ3 cells (competition),ανβ3 [8]; parent compound 200 μM for 1 hour before E-6 incubation,prevented
same,E-6 fluorescence intensity from A673 cells in the presence of a blocking dose,[9]; [11],reduced
